# Measured values published in ChEMBL document CHEMBL3046559, “Sterile oat (Avena sterilis L.) cross-resistance profile to ACCase-inhibiting herbicides in Greece” (2012).
# Assays:
# Assay type in all cases: functional
# [1] = test system: Avena sterilis; test: Herbicidal activity against Avena sterilis accession P18 assessed as weed survival at 1 times field recommended herbicide dose
# [2] = test system: Avena sterilis; test: Herbicidal activity against Avena sterilis accession P17 assessed as weed survival at 1 times field recommended herbicide dose
# [3] = test system: Avena sterilis; test: Herbicidal activity against Avena sterilis accession P16 assessed as weed survival at 1 times field recommended herbicide dose
# [4] = test system: Avena sterilis; test: Herbicidal activity against Avena sterilis accession P14 assessed as weed survival at 1 times field recommended herbicide dose
# [5] = test system: Avena sterilis; test: Herbicidal activity against Avena sterilis accession P09 assessed as weed survival at 1 times field recommended herbicide dose
# [6] = test system: Avena sterilis; test: Herbicidal activity against Avena sterilis accession P07 assessed as weed survival at 1 times field recommended herbicide dose
# [7] = test system: Avena sterilis; test: Herbicidal activity against Avena sterilis accession P21S assessed as weed survival at 1/32 times field recommended herbicide dose
# [8] = test system: Avena sterilis; test: Herbicidal activity against Avena sterilis accession P19S assessed as weed survival at 1/32 times field recommended herbicide dose
# [9] = test system: Avena sterilis; test: Herbicidal activity against Avena sterilis accession P06S assessed as weed survival at 1/32 times field recommended herbicide dose
# [10] = test system: Avena sterilis; test: Herbicidal activity against Avena sterilis accession P22 assessed as weed survival at 32 times field recommended herbicide dose
# [11] = test system: Avena sterilis; test: Herbicidal activity against Avena sterilis accession P17 assessed as weed survival at 32 times field recommended herbicide dose
# [12] = test system: Avena sterilis; test: Herbicidal activity against Avena sterilis accession P19S assessed as induction of weed mortality
# [13] = test system: Avena sterilis; test: Herbicidal activity against Avena sterilis accession P10S assessed as induction of weed mortality
# [14] = test system: Avena sterilis; test: Herbicidal activity against Avena sterilis accession P20 assessed as induction of weed mortality
# [15] = test system: Avena sterilis; test: Herbicidal activity against Avena sterilis accession P17 assessed as induction of weed mortality
# [16] = test system: Avena sterilis; test: Herbicidal activity against Avena sterilis accession P16 assessed as induction of weed mortality
# [17] = test system: Avena sterilis; test: Herbicidal activity against Avena sterilis accession P14 assessed as induction of weed mortality
# [18] = test system: Avena sterilis; test: Herbicidal activity against Avena sterilis accession P11 assessed as induction of weed mortality
# [19] = test system: Avena sterilis; test: Herbicidal activity against Avena sterilis accession P09 assessed as induction of weed mortality
# [20] = test system: Avena sterilis; test: Herbicidal activity against Avena sterilis accession P08 assessed as induction of weed mortality
# [21] = test system: Avena sterilis; test: Herbicidal activity against Avena sterilis accession P07 assessed as induction of weed mortality
# [22] = test system: Avena sterilis; test: Herbicidal activity against Avena sterilis accession P05 assessed as induction of weed mortality
# [23] = test system: Avena sterilis; test: Herbicidal activity against Avena sterilis accession P03 assessed as induction of weed mortality
# [24] = test system: Avena sterilis; test: Herbicidal activity against Avena sterilis accession P02 assessed as induction of weed mortality
# [25] = test system: Avena sterilis; test: Herbicidal activity against Avena sterilis accession P01 assessed as induction of weed mortality
# [26] = test system: Avena sterilis; test: Herbicidal activity against Avena sterilis accession P16 assessed as weed survival at 8 times field recommended herbicide dose
# [27] = test system: Avena sterilis; test: Herbicidal activity against Avena sterilis accession P15 assessed as weed survival at 8 times field recommended herbicide dose
# [28] = test system: Avena sterilis; test: Herbicidal activity against Avena sterilis accession P12 assessed as weed survival at 32 times field recommended herbicide dose
# [29] = test system: Avena sterilis; test: Herbicidal activity against Avena sterilis accession P11 assessed as weed survival at 32 times field recommended herbicide dose
# [30] = test system: Avena sterilis; test: Herbicidal activity against Avena sterilis accession P03 assessed as weed survival at 32 times field recommended herbicide dose
# [31] = test system: Avena sterilis; test: Herbicidal activity against Avena sterilis accession P02 assessed as weed survival at 32 times field recommended herbicide dose
# [32] = test system: Avena sterilis; test: Herbicidal activity against Avena sterilis accession P21S assessed as weed survival at 1/16 times field recommended herbicide dose
# [33] = test system: Avena sterilis; test: Herbicidal activity against Avena sterilis accession P10S assessed as weed survival at 1/16 times field recommended herbicide dose
# [34] = test system: Avena sterilis; test: Herbicidal activity against Avena sterilis accession P17 assessed as weed survival at 16 times field recommended herbicide dose
# [35] = test system: Avena sterilis; test: Herbicidal activity against Avena sterilis accession P12 assessed as weed survival at 16 times field recommended herbicide dose
# [36] = test system: Avena sterilis; test: Herbicidal activity against Avena sterilis accession P09 assessed as weed survival at 16 times field recommended herbicide dose
# [37] = test system: Avena sterilis; test: Herbicidal activity against Avena sterilis accession P08 assessed as weed survival at 16 times field recommended herbicide dose
# [38] = test system: Avena sterilis; test: Herbicidal activity against Avena sterilis accession P03 assessed as weed survival at 16 times field recommended herbicide dose
# [39] = test system: Avena sterilis; test: Herbicidal activity against Avena sterilis accession P02 assessed as weed survival at 16 times field recommended herbicide dose
# [40] = test system: Avena sterilis; test: Herbicidal activity against Avena sterilis accession P21S assessed as weed survival at 1/8 times field recommended herbicide dose
# [41] = test system: Avena sterilis; test: Herbicidal activity against Avena sterilis accession P19S assessed as weed survival at 1/8 times field recommended herbicide dose
# [42] = test system: Avena sterilis; test: Herbicidal activity against Avena sterilis accession P10S assessed as weed survival at 1/8 times field recommended herbicide dose
# [43] = test system: Avena sterilis; test: Herbicidal activity against Avena sterilis accession P20 assessed as weed survival at 8 times field recommended herbicide dose
# [44] = test system: Avena sterilis; test: Herbicidal activity against Avena sterilis accession P11 assessed as weed survival at 8 times field recommended herbicide dose
# [45] = test system: Avena sterilis; test: Herbicidal activity against Avena sterilis accession P08 assessed as weed survival at 8 times field recommended herbicide dose
# [46] = test system: Avena sterilis; test: Herbicidal activity against Avena sterilis accession P03 assessed as weed survival at 8 times field recommended herbicide dose
# [47] = test system: Avena sterilis; test: Herbicidal activity against Avena sterilis accession P21S assessed as weed survival at 1/4 times field recommended herbicide dose
# [48] = test system: Avena sterilis; test: Herbicidal activity against Avena sterilis accession P13S assessed as weed survival at 1/4 times field recommended herbicide dose
# [49] = test system: Avena sterilis; test: Herbicidal activity against Avena sterilis accession P20 assessed as weed survival at 4 times field recommended herbicide dose
# [50] = test system: Avena sterilis; test: Herbicidal activity against Avena sterilis accession P17 assessed as weed survival at 4 times field recommended herbicide dose
# [51] = test system: Avena sterilis; test: Herbicidal activity against Avena sterilis accession P16 assessed as weed survival at 4 times field recommended herbicide dose
# [52] = test system: Avena sterilis; test: Herbicidal activity against Avena sterilis accession P11 assessed as weed survival at 4 times field recommended herbicide dose
# [53] = test system: Avena sterilis; test: Herbicidal activity against Avena sterilis accession P06S assessed as weed survival at 1 times field recommended herbicide dose
# [54] = test system: Avena sterilis; test: Herbicidal activity against Avena sterilis accession P20 assessed as weed survival at 1 times field recommended herbicide dose
# [55] = test system: Avena sterilis; test: Herbicidal activity against Avena sterilis accession P04 assessed as weed survival at 4 times field recommended herbicide dose
# [56] = test system: Avena sterilis; test: Herbicidal activity against Avena sterilis accession P02 assessed as weed survival at 4 times field recommended herbicide dose
# [57] = test system: Avena sterilis; test: Herbicidal activity against Avena sterilis accession P01 assessed as weed survival at 4 times field recommended herbicide dose
# [58] = test system: Avena sterilis; test: Herbicidal activity against Avena sterilis accession P13S assessed as weed survival at 1 times field recommended herbicide dose
# [59] = test system: Avena sterilis; test: Herbicidal activity against Avena sterilis accession P10S assessed as weed survival at 1 times field recommended herbicide dose
compound,measurement,setting,value
C#CCOC(=O)[C@@H](C)Oc1ccc(Oc2ncc(Cl)cc2F)cc1 [CLODINAFOP PROPARGYL],Survival,[1],80%
same,Survival,[2],97%
same,Survival,[3],93%
same,Survival,[4],97%
same,Survival,[5],63%
same,Survival,[6],13%
same,Survival,[7],97%
same,Survival,[8],100%
same,Survival,[9],100%
same,Survival,[10],0%
same,Survival,[11],20%
same,GR50,[12],29 gAi/ha
same,GR50,[13],8 gAi/ha
same,GR50,[14],508 gAi/ha
same,GR50,[15],283 gAi/ha
same,GR50,[16],169 gAi/ha
same,GR50,[17],1219 gAi/ha
same,GR50,[18],>1312 gAi/ha
same,GR50,[19],46 gAi/ha
same,GR50,[20],>1312 gAi/ha
same,GR50,[21],<41 gAi/ha
same,GR50,[22],180 gAi/ha
same,GR50,[23],>1312 gAi/ha
same,GR50,[24],>1312 gAi/ha
same,GR50,[25],1053 gAi/ha
same,Survival,[26],20%
same,Survival,[27],100%
same,Survival,[28],83%
same,Survival,[29],93%
same,Survival,[30],73%
same,Survival,[31],87%
same,Survival,[32],90%
same,Survival,[33],80%
same,Survival,[34],27%
same,Survival,[35],83%
same,Survival,[36],0%
same,Survival,[37],73%
same,Survival,[38],87%
same,Survival,[39],93%
same,Survival,[40],77%
same,Survival,[41],97%
same,Survival,[42],77%
same,Survival,[43],60%
same,Survival,[44],100%
same,Survival,[45],93%
same,Survival,[46],97%
same,Survival,[47],60%
same,Survival,[48],10%
same,Survival,[49],73%
same,Survival,[50],67%
same,Survival,[51],50%
same,Survival,[52],97%
same,Survival,[53],0%
same,Survival,[54],93%
same,Survival,[55],100%
same,Survival,[56],100%
same,Survival,[57],87%
same,Survival,[58],0%
same,Survival,[59],0%
COC(=O)C(C)Oc1ccc(Oc2ccc(Cl)cc2Cl)cc1 (configuration not stated) [DICLOFOP-METHYL],Survival,[1],100%
same,Survival,[2],93%
same,Survival,[3],80%
same,Survival,[4],90%
same,Survival,[5],100%
same,Survival,[6],100%
same,Survival,[7],100%
same,Survival,[8],100%
same,Survival,[9],100%
same,Survival,[10],20%
same,Survival,[11],20%
same,GR50,[12],451 gAi/ha
same,GR50,[13],506 gAi/ha
same,GR50,[14],>22740 gAi/ha
same,GR50,[15],8389 gAi/ha
same,GR50,[16],5442 gAi/ha
same,GR50,[17],11045 gAi/ha
same,GR50,[18],>22740 gAi/ha
same,GR50,[19],14176 gAi/ha
same,GR50,[20],11354 gAi/ha
same,GR50,[21],3737 gAi/ha
same,GR50,[22],4859 gAi/ha
same,GR50,[23],13359 gAi/ha
same,GR50,[24],>22740 gAi/ha
same,GR50,[25],21999 gAi/ha
same,Survival,[26],53%
same,Survival,[27],80%
same,Survival,[28],63%
same,Survival,[29],63%
same,Survival,[30],40%
same,Survival,[31],53%
same,Survival,[32],97%
same,Survival,[33],97%
same,Survival,[34],43%
same,Survival,[35],63%
same,Survival,[36],53%
same,Survival,[37],53%
same,Survival,[38],53%
same,Survival,[39],70%
same,Survival,[40],97%
same,Survival,[41],100%
same,Survival,[42],97%
same,Survival,[43],80%
same,Survival,[44],73%
same,Survival,[45],60%
same,Survival,[46],60%
same,Survival,[47],83%
same,Survival,[48],80%
same,Survival,[49],100%
same,Survival,[50],80%
same,Survival,[51],60%
same,Survival,[52],90%
same,Survival,[53],40%
same,Survival,[54],100%
same,Survival,[55],97%
same,Survival,[56],97%
same,Survival,[57],87%
same,Survival,[58],40%
same,Survival,[59],33%
CCOC(=O)[C@@H](C)Oc1ccc(Oc2nc3ccc(Cl)cc3o2)cc1 [FENOXAPROP-P-ETHYL],Survival,[1],100%
same,Survival,[2],97%
same,Survival,[3],93%
same,Survival,[4],57%
same,Survival,[5],80%
same,Survival,[6],97%
same,Survival,[7],97%
same,Survival,[8],93%
same,Survival,[9],97%
same,Survival,[10],0%
same,Survival,[11],0%
same,GR50,[12],31 gAi/ha
same,GR50,[13],16 gAi/ha
same,GR50,[14],>2640 gAi/ha
same,GR50,[15],303 gAi/ha
same,GR50,[16],505 gAi/ha
same,GR50,[17],155 gAi/ha
same,GR50,[18],2261 gAi/ha
same,GR50,[19],2121 gAi/ha
same,GR50,[20],854 gAi/ha
same,GR50,[21],>2640 gAi/ha
same,GR50,[22],181 gAi/ha
same,GR50,[23],860 gAi/ha
same,GR50,[24],2070 gAi/ha
same,GR50,[25],600 gAi/ha
same,Survival,[26],20%
same,Survival,[27],70%
same,Survival,[28],40%
same,Survival,[29],50%
same,Survival,[30],37%
same,Survival,[31],40%
same,Survival,[32],83%
same,Survival,[33],87%
same,Survival,[34],20%
same,Survival,[35],50%
same,Survival,[36],60%
same,Survival,[37],30%
same,Survival,[38],40%
same,Survival,[39],67%
same,Survival,[40],80%
same,Survival,[41],87%
same,Survival,[42],80%
same,Survival,[43],90%
same,Survival,[44],77%
same,Survival,[45],63%
same,Survival,[46],60%
same,Survival,[47],43%
same,Survival,[48],43%
same,Survival,[49],100%
same,Survival,[50],40%
same,Survival,[51],90%
same,Survival,[52],83%
same,Survival,[53],0%
same,Survival,[54],97%
same,Survival,[55],80%
same,Survival,[56],100%
same,Survival,[57],73%
same,Survival,[58],0%
same,Survival,[59],0%
